According to ChEMBL document CHEMBL5352421, “Identification of novel piperazine-tethered phthalazines as selective CDK1 inhibitors endowed with in vitro anticancer activity toward the pancreatic cancer” (Eur J Med Chem, 2022):

Experiments:
[1] = Antiproliferative activity against human MDA-PATC53 cells assessed as growth inhibition incubated at 10 uM for 24 hrs by MTT assay relative to control; type: functional; details: read-out: GI
[2] = Antiproliferative activity against human PL45 cells assessed as growth inhibition incubated at 10 uM for 24 hrs by MTT assay relative to control; type: functional; details: read-out: GI
[3] = test system: SK-MEL-1; assay: Antiproliferative activity against human SK-MEL-1 cells assessed as growth inhibition incubated at 10 uM for 24 hrs by MTT assay relative to control; type: functional; details: read-out: GI
[4] = test system: A-375; assay: Antiproliferative activity against human A-375 cells assessed as growth inhibition incubated at 10 uM for 24 hrs by MTT assay relative to control; type: functional; details: read-out: GI
[5] = test system: G-361; assay: Antiproliferative activity against human G-361 cells assessed as growth inhibition incubated at 10 uM for 24 hrs by MTT assay relative to control; type: functional; details: read-out: GI
[6] = test system: MOLT-4; assay: Antiproliferative activity against human MOLT-4 cells assessed as growth inhibition incubated at 10 uM for 24 hrs by MTT assay relative to control; type: functional; details: read-out: GI
[7] = test system: KG-1; assay: Antiproliferative activity against human KG-1 cells assessed as growth inhibition incubated at 10 uM for 24 hrs by MTT assay relative to control; type: functional; details: read-out: GI
[8] = test system: T84; assay: Antiproliferative activity against human T84 cells assessed as growth inhibition incubated at 10 uM for 24 hrs by MTT assay relative to control; type: functional; details: read-out: GI
[9] = test system: HT-29; assay: Antiproliferative activity against human HT-29 cells assessed as growth inhibition incubated at 10 uM for 24 hrs by MTT assay relative to control; type: functional; details: read-out: GI
[10] = test system: MCF7; assay: Antiproliferative activity against human MCF7 cells assessed as growth inhibition incubated at 10 uM for 24 hrs by MTT assay relative to control; type: functional; details: read-out: GI
[11] = test system: BT-549; assay: Antiproliferative activity against human BT-549 cells assessed as growth inhibition incubated at 10 uM for 24 hrs by MTT assay relative to control; type: functional; details: read-out: GI
[12] = Antiproliferative activity against human MDA-PATC53 cells assessed as growth inhibition incubated for 24 hrs by MTT assay; type: functional, cell-based; details: MDA-PATC53, 24 h
[13] = Antiproliferative activity against human PL45 cells assessed as growth inhibition incubated for 24 hrs by MTT assay; type: functional, cell-based; details: PL45, 24 h
[14] = biological target: Cyclin-dependent kinase 1 (Homo sapiens, UniProt P06493); assay: Inhibition of CDK1 (unknown origin) by FRET assay
Sequence of Cyclin-dependent kinase 1 (P06493 whole entry): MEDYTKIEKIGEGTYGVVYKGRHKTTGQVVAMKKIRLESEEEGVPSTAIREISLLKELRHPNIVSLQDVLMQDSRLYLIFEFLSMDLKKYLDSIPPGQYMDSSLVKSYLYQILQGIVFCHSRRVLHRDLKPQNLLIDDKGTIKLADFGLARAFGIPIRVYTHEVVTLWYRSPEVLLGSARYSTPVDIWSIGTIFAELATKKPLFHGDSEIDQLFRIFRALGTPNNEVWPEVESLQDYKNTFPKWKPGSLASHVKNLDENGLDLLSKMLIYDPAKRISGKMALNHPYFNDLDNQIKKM

[15] = biological target: Cyclin-dependent kinase 2 (Homo sapiens, UniProt P24941); assay: Inhibition of CDK2 (unknown origin) by FRET assay
[16] = biological target: Cyclin-dependent kinase 5 (Homo sapiens, UniProt Q00535); assay: Inhibition of CDK5 (unknown origin) by FRET assay
Sequence of Cyclin-dependent kinase 5 (Q00535 whole entry): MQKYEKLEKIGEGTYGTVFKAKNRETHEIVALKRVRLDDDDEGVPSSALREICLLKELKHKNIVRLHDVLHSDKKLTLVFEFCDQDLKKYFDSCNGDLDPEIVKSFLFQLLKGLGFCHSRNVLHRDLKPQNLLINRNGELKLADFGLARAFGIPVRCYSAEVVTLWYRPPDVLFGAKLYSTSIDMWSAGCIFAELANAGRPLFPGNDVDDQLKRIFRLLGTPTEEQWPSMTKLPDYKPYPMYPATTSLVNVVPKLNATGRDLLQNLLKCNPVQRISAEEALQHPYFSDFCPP

[17] = Selectivity index, ratio of IC50 for CDK2 (unknown origin) to CDK1 (unknown origin)
[18] = Selectivity index, ratio of IC50 for CDK5 (unknown origin) to CDK1 (unknown origin)
[19] = biological target: T1, Tyrosine-protein kinase receptor UFO (Homo sapiens, UniProt P30530); assay: Inhibition of AXL (unknown origin) by FRET assay
T1 sequence (P30530 whole entry): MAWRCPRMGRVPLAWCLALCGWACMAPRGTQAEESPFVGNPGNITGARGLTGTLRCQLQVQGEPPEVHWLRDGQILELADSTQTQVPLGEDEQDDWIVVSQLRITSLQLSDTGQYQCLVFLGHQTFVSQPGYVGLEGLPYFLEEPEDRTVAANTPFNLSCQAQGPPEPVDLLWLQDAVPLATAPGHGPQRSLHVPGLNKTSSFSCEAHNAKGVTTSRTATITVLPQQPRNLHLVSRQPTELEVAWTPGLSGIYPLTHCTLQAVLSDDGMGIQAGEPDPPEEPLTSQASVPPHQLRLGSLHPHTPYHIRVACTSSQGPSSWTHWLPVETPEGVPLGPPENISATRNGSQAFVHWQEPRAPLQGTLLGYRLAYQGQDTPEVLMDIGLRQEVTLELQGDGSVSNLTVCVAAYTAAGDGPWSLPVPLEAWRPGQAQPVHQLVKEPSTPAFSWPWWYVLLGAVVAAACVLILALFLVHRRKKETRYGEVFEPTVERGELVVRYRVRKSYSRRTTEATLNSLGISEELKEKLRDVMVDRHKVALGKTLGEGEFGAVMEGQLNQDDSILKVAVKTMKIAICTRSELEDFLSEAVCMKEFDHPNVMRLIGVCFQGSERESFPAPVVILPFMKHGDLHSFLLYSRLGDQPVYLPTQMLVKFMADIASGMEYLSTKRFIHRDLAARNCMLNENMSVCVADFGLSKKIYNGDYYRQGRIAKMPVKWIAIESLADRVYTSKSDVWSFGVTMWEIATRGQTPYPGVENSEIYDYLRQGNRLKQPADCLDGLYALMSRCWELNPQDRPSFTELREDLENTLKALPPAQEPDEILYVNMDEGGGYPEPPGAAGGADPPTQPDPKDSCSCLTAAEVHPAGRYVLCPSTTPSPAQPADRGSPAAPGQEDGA

[20] = biological target: Protein-tyrosine kinase 2-beta (Homo sapiens, UniProt Q14289); assay: Inhibition of PTK2B (unknown origin) by FRET assay
Sequence of Protein-tyrosine kinase 2-beta (Q14289 whole entry): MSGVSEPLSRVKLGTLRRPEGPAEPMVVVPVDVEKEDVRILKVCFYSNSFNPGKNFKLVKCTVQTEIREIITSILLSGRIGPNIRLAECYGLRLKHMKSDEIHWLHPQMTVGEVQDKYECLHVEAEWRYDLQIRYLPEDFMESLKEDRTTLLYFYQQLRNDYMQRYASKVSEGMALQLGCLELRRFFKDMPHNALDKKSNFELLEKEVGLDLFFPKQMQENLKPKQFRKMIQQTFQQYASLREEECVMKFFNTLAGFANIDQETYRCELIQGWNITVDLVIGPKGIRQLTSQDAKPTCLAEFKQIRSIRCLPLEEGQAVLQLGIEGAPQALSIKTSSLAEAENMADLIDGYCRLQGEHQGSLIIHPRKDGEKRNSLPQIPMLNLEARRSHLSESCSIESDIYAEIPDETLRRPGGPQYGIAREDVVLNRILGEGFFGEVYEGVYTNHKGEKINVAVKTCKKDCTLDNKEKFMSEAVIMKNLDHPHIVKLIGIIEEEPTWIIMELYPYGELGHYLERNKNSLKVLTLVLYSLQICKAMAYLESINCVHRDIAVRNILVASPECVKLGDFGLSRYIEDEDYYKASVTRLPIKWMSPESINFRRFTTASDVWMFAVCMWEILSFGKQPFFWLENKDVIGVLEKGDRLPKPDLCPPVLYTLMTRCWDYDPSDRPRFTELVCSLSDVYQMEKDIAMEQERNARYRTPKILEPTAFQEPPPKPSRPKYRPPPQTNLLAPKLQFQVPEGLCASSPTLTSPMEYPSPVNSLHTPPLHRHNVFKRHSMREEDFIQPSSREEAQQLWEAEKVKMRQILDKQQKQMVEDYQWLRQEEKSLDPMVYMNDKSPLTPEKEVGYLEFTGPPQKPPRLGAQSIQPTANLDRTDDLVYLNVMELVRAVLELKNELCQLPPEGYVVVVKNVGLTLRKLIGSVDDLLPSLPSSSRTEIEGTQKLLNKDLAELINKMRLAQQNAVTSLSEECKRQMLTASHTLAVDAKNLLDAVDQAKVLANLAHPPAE

[21] = biological target: Fibroblast growth factor receptor (Homo sapiens, UniProt P22607+P11362+P22455+P21802); assay: Inhibition of FGFR (unknown origin) by FRET assay; type: protein assay
[22] = biological target: Tyrosine-protein kinase JAK1 (Homo sapiens, UniProt P23458); assay: Inhibition of JAK1 (unknown origin) by FRET assay
Sequence of Tyrosine-protein kinase JAK1 (P23458 whole entry): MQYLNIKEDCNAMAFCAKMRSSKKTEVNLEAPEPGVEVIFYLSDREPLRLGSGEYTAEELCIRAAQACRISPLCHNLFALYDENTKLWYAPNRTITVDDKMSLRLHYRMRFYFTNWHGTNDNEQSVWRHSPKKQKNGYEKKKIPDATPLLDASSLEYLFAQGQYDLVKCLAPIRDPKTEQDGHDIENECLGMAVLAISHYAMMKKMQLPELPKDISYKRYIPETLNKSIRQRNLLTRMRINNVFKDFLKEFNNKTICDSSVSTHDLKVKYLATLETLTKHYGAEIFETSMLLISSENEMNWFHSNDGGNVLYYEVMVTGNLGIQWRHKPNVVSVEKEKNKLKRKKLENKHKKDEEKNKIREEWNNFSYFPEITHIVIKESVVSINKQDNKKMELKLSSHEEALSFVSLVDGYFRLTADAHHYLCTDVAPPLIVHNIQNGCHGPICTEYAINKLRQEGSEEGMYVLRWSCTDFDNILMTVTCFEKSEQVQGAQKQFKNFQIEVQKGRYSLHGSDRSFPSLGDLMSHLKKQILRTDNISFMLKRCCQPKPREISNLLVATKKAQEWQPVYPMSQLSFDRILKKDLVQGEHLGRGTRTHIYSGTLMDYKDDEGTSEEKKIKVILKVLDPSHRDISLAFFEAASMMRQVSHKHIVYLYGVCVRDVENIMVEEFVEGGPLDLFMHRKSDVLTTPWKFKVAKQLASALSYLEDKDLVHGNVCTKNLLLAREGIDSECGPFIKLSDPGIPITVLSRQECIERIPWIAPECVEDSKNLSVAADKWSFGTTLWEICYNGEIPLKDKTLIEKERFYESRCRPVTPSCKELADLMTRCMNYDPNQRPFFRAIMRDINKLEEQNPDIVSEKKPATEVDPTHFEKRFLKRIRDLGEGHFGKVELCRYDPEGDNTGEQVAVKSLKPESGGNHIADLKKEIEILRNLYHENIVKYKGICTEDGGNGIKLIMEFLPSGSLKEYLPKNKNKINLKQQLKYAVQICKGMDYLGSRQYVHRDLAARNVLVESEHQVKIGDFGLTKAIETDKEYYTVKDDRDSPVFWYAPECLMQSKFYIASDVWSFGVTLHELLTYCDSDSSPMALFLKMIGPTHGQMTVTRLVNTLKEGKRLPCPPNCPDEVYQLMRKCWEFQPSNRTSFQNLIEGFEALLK

[23] = biological target: Insulin-like growth factor 1 receptor (Homo sapiens, UniProt P08069); assay: Inhibition of IGF1R (unknown origin) by FRET assay
Sequence of Insulin-like growth factor 1 receptor (P08069 31-736 limits assumed): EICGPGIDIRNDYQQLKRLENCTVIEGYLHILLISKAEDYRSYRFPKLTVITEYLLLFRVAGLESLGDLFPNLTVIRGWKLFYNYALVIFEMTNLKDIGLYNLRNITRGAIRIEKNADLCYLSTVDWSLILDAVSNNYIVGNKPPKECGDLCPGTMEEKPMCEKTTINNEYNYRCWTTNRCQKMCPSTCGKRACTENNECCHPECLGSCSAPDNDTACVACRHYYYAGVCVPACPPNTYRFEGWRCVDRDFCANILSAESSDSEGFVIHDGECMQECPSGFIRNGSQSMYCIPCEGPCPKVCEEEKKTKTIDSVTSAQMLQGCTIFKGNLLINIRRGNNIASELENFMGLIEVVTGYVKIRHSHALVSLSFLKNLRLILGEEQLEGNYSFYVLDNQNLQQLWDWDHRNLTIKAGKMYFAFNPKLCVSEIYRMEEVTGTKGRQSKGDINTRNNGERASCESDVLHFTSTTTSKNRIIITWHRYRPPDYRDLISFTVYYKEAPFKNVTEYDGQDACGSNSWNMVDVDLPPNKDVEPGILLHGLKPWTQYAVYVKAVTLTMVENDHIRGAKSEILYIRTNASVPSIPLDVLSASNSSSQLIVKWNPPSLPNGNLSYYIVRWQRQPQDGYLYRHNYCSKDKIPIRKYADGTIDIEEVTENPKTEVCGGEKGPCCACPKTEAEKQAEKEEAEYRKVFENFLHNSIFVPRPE
Sequence of Insulin-like growth factor 1 receptor (P08069 741-1367 limits assumed): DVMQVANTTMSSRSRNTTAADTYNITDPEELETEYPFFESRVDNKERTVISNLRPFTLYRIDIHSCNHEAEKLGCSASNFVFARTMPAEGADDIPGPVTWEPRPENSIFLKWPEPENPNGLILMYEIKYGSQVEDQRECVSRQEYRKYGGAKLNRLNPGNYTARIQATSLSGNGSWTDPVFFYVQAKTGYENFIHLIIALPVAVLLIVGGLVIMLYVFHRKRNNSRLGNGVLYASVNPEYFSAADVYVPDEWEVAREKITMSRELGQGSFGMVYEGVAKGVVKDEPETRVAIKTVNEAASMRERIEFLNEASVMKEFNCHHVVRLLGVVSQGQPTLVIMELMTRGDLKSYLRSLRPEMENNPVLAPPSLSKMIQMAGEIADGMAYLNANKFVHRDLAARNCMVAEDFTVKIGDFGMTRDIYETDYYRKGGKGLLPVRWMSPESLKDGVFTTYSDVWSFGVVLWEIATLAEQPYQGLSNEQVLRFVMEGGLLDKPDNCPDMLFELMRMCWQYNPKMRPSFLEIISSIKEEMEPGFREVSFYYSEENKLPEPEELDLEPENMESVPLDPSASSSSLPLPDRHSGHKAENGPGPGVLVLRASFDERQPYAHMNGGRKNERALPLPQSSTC

[24] = biological target: Serine/threonine-protein kinase B-raf (Homo sapiens, UniProt P15056); assay: Inhibition of BRAF (unknown origin) by FRET assay
Sequence of Serine/threonine-protein kinase B-raf (P15056 whole entry): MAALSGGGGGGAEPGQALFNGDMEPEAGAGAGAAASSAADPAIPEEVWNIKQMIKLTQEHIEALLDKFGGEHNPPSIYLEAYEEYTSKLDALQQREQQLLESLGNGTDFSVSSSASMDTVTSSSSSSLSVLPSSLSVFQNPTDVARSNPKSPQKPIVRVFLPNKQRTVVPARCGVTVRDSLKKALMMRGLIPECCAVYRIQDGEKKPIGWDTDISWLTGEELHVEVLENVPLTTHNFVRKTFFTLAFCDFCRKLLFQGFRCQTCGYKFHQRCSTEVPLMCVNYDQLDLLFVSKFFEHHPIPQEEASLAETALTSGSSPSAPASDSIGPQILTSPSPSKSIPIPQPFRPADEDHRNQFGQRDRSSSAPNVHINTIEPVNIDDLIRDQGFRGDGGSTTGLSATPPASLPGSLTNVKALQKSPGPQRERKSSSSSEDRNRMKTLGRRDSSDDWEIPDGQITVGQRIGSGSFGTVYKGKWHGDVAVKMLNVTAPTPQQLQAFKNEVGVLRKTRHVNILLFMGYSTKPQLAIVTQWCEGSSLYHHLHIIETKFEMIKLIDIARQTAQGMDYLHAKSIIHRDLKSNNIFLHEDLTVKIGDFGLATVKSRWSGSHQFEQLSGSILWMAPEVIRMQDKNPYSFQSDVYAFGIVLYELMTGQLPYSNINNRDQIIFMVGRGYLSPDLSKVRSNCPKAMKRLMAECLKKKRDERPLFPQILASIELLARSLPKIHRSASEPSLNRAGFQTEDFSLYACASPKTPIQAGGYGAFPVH

| IC50 [14] [nM] | IC50 [15] [nM] | IC50 [16] [nM] | Ratio IC50 [17] | Ratio IC50 [18] | IC50 [19] [µM] | IC50 [20] [µM] | Structure (SMILES) | inhibition of growth at 10 µM [1] [%] | inhibition of growth at 10 µM [2] [%] | inhibition of growth at 10 µM [3] [%] | inhibition of growth at 10 µM [4] [%] | inhibition of growth at 10 µM [5] [%] | inhibition of growth at 10 µM [6] [%] | inhibition of growth at 10 µM [7] [%] | inhibition of growth at 10 µM [8] [%] | inhibition of growth at 10 µM [9] [%] | inhibition of growth at 10 µM [10] [%] | inhibition of growth at 10 µM [11] [%] | IC50 [12] [µM] | IC50 [13] [µM] | further results |
| --- | --- | --- | --- | --- | --- | --- | --- | --- | --- | --- | --- | --- | --- | --- | --- | --- | --- | --- | --- | --- | --- |
| 52 | 345 | 140 | 6.63 | 2.7 | 4.74 | 4.82 | COc1ccc(Cc2nnc(N3CCN(C(=O)Nc4ccc(OC)cc4)CC3)c3ccccc23)cc1 | 73.1 | 66.1 | 39 | 25.8 | 49 | 25.4 | 0.31 | 57.5 | 32.1 | 24.2 | 50.3 | 4.12 | 5.09 | IC50 [21]: 3.512 µM; IC50 [22]: 1.57 µM; IC50 [23]: 0.865 µM; IC50 [24]: 3.7 µM |
| 58.4 | 103 | 826 | 1.76 | 14.2 | 8.75 | 1.33 | O=C(Nc1ccc(Cl)cc1)N1CCN(c2nnc(Cc3ccccc3)c3ccccc23)CC1 | 67.4 | 81.8 | 50.1 | 66.3 | 47 | 33 | 57.9 | 29.4 | 81.2 | 64.8 | 23 | 5.3 | 2.21 | IC50 [21]: 6.346 µM; IC50 [22]: 4.55 µM; IC50 [23]: 3.15 µM; IC50 [24]: 3.65 µM |
| 85 | 524 | 996 | 6.16 | 11.7 | 1.17 | 1.45 | COc1ccc(Cc2nnc(N3CCN(C(=S)Nc4ccccc4)CC3)c3ccccc23)cc1 | 76.2 | 42.3 | 11.4 | 17 | 4.21 | 28.7 | 13.9 | 7.38 | 16.9 | 14 | 13.2 | 2.06 | 13.3 | IC50 [21]: 7.953 µM; IC50 [22]: 3.55 µM; IC50 [23]: 2.43 µM; IC50 [24]: 4.73 µM |
| 84.4 | 396 | 452 | 4.7 | 5.36 | 8.41 | 3.66 | COc1ccc(Cc2nnc(N3CCN(C(=S)Nc4ccc(OC)cc4)CC3)c3ccccc23)cc1 | 66.4 | 83.5 | 29.4 | 47.9 | 58.3 | 31.4 | 23.9 | 19.3 | 51.7 | 73.1 | 23.7 | 6.65 | 2.1 | IC50 [21]: 3.566 µM; IC50 [22]: 1.54 µM; IC50 [23]: 5.65 µM; IC50 [24]: 3.05 µM |
| 91 | 455 | 391 | 5 | 4.3 | 5.49 | 4.33 | COc1ccc(Cc2nnc(N3CCN(C(=O)c4ccccc4)CC3)c3ccccc23)cc1 | 70.4 | 44.6 | 2.02 | 10.3 | 8.66 | 9.47 | 12.1 | 18.3 | 5.09 | 11.4 | 19 | 4.07 | 12.9 | IC50 [21]: 6.332 µM; IC50 [22]: 5.6 µM; IC50 [23]: 1.53 µM; IC50 [24]: 3.26 µM |
| 126 | 308 | 498 | 2.43 | 3.94 | 4.42 | 3.64 | COc1ccc(NC(=S)N2CCN(c3nnc(Cc4ccccc4)c4ccccc34)CC2)cc1 | 49 | 49.6 | 6.64 | 11.2 | 24.6 | 14.2 | 1.36 | 9.67 | 21.9 | 10.1 | 8.65 | 10.2 | 12.5 | IC50 [21]: 5.517 µM; IC50 [22]: 2.54 µM; IC50 [23]: 8.63 µM; IC50 [24]: 4.49 µM |
| 83.1 | 301 | 606 | 3.62 | 7.29 | 1.52 | 6.38 | COc1ccc(C(=O)N2CCN(c3nnc(Cc4ccccc4)c4ccccc34)CC2)cc1 | 42 | 66.7 | 11.8 | 5.3 | 3.45 | 1.02 | 0.91 | 2 | 1.58 | 4.09 | 5.26 | 14.3 | 4.85 | IC50 [21]: 8.605 µM; IC50 [22]: 5.55 µM; IC50 [23]: 4.08 µM; IC50 [24]: 4.67 µM |
| 109 | 341 | 358 | 3.13 | 3.29 | 3.63 | 5.21 | S=C(Nc1ccc(Cl)cc1)N1CCN(c2nnc(Cc3ccccc3)c3ccccc23)CC1 | 49.3 | 64.1 | 5.4 | 8.39 | 1.08 | 19.6 | 8.92 | 12.2 | 10.8 | 7.64 | 18.6 | 11.9 | 6.75 | IC50 [21]: 5.278 µM; IC50 [22]: 6.61 µM; IC50 [23]: 6.3 µM; IC50 [24]: 4.99 µM |
